Experimental data taken from paper PMC5844890 (Scientific Reports, 2018).

Assays:
[1] = tested on: A2780AD cells; assay: Anti-proliferative activity, A2780AD (MDR overexpressing P-glycoprotein) ovarian carcinoma cells; type: cell-based, human; details: Homo sapiens, A2780AD; P-glycoprotein overexpressing resistant line; mean ± standard error of three independent experiments; read-out: A2780 AD IC50
Excerpt: (§1) One of the most relevant causes of tumor resistance to chemotherapy is the overexpression of membrane pumps which remove the chemotherapeutic agents from the treated cells.

[2] = tested on: A2780 cells; assay: Anti-proliferative activity, A2780 ovarian carcinoma cells; type: cell-based, human; details: Homo sapiens, A2780; mean ± standard error of three independent experiments
Excerpt: as §1

[3] = tested on: HMEC-1 cells; assay: Disruption of a preformed vascular network on matrigel (tube formation); type: cell-based, human
Protocol: (§2) Figure 6 Mechanism of action of the benzofurane derivatives. (A) Inhibition of cell cycle progression. MDA-MB-231 cells were treated with DMSO (control) or compounds 8, 27 or 28 for 24 h. Next, the cells were harvested, stained with propidium iodide (PI), and cell cycle distribution was evaluated by flow cytometry. Percentages of cells in the different phases of the cell cycle are indicated. (B) Caspase-3 activity. MDA-MB-231 cells were seeded in 48-well plates at 40,000 cells/cm². After 24 h, different concentrations of compounds 8, 27 or 28 and 2 µM of the caspase-3 substrate DEVD-NucView488 were added. After 16 h, the cells were incubated with 2 µg/ml Hoechst 33342 to stain the nucleus, and imaged. (C) Disruption of the vascular network. HMEC-1 cells were cultured on matrigel for 3 h to allow the formation of tube-like structures. Next, different concentrations of compounds were added. Upper panel: After 90 min, pictures were taken and the tubular network was scored (3: intact network, 0: network completely destroyed). Bars show average ± SEM (n = 4). Lower panel: Microscopic pictures of the tubular network 3 h after addition of compound.
Another feature of colchicine-site binding agents is their ability to destroy a 3-dimensional network of endothelial cells. To determine the vascular disrupting capacity of compounds 27 and 28, HMEC-1 cells were seeded on top of matrigel. This tumor derived extracellular matrix induces within 3 h the rearrangement of endothelial cells into a vascular network. Compounds 27 and 28 caused a disruption of the tubular network in a concentration-dependent manner (Fig. 6C).
Wells of a 96-well plate were coated with 70 µl matrigel (10 mg/ml, BD Biosciences, Heidelberg, Germany) at 4 °C. After gelatinization at 37 °C during 30 min, HMEC-1 cells were seeded at 60,000 cells/well on top of the matrigel in 200 µl DMEM containing 10% FCS. After 3 h of incubation at 37 °C, when the endothelial cells had reorganized to form tube-like structures, the compounds were added. Ninety minutes later, the cultures were photographed at 100 × magnification and analyzed using digitalized analysis.

[4] = tested on: CEM cells; assay: Anti-proliferative activity, CEM lymphoblastic leukemia cells (Coulter counting); type: cell-based; details: Homo sapiens, CCRF-CEM; mean ± SD of three independent experiments; 96 h; read-out: Tumor cells IC50 CEM
Excerpt: The anti-proliferative activity of the synthesized benzofurane derivatives was studied in three human cancer cell lines [breast carcinoma (MDA-MB-231), lymphoblastic leukemia (CEM) and cervical carcinoma (HeLa) cells] and one endothelial cell line [human microvascular endothelial cells (HMEC-1)].
The human microvascular endothelial cell line HMEC-1 was obtained at passage 12 from the Centers for Disease Control and Prevention (Atlanta, GA, USA) and used from passage 17 till 27. Human breast carcinoma (MDA-MB-231), human cervical carcinoma (HeLa) and human T-lymphoid (CEM) cells were obtained from ATCC (Middlesex, UK). Cell lines were maintained in culture for up to 3 months and grown in DMEM, supplemented with 10% FBS, 0.01 M Hepes and 1 mM sodium pyruvate. All cells were cultured in a humidified 5% CO2 incubator at 37 °C.
HMEC-1 cells were seeded in 48-well plates at 20,000 cells/well. After 24 h, 5-fold dilutions of the compounds were added. The cells were allowed to proliferate 4 days in the presence of the compounds, trypsinized, and counted by means of a Coulter counter (Analis, Belgium). HeLa and MDA-MB-231 cells were seeded in 48-well plates at 10,000 cells/well. After 24 h, different concentrations of the compounds were added. After 3 days of incubation, the cells were trypsinized and counted in a Coulter counter. Suspension cells (human lymphoid Cem cells) were seeded in 96-well plates at 60,000 cells/well in the presence of different concentrations of the compounds, allowed to proliferate for 96 h, and counted in a Coulter counter. The 50% inhibitory concentration (IC50) was defined as the compound concentration required to reduce cell proliferation by 50%.

[5] = tested on: MDA-MB-231 cells; assay: Cell cycle analysis (propidium iodide, flow cytometry); type: cell-based, human; details: 24 h treatment
Protocol: Tubulin-binding agents interfere with mitotic spindle formation during cell division. […] Thus, we investigated whether 27 and 28 affect the progression of human breast cancer MDA-MB-231 cells through the cell cycle. […] In contrast, compounds 27 and 28 arrested the cell cycle in the M phase (mitosis) at concentrations as low as 0.03 and 0.1 μM (for compound 27 and 28 respectively).
as §2
MDA-MB-231 cells were seeded in 6-well plates at 125,000 cells/well in DMEM with 10% FBS. After 24 h, the cells were exposed to different concentrations of the compounds. After 24 h, the DNA of the cells was stained with propidium iodide using the CycleTEST PLUS DNA Reagent Kit (BD Biosciences, San Jose, CA). The DNA content of the stained cells was assessed by flow cytometry on a FACSCalibur flow cytometer and analyzed with CellQuest software (BD Biosciences) within 3 h after staining. Cell debris and clumps were excluded from the analysis by appropriate dot plot gating. Percentages of sub-G1, G1, S, and G2/M cells were estimated using appropriate region markers.

[6] = tested on: HMEC-1 cells; assay: IncuCyte scratch wound migration assay with PI uptake; type: cell-based; details: for uptake of PI (toxicity): at the lowest concentration inhibiting wound closure (0.5, 0.06 and 0.06 µM)
Protocol: Proper tubulin organization is not only required for cell division but also for cell motility and migration. Therefore, we evaluated the capacity of the compounds to inhibit the migration of HMEC-1 endothelial cells. To this end, we used the 96-well IncuCyte® scratch wound assay. After the creation of a cell-free zone (wound) in a confluent cell monolayer, compounds were added, and relative wound density was measured every minute and visualized in time-course plots. PI was added to all wells to visualize toxicity over time, i.e. only dead cells take up this cell-impermeable dye.
Figure 7 Inhibition of HMEC-1 migration. The 96-well IncuCyte® scratch wound assay was used to create a cell-free zone (wound) in a confluent cell monolayer. Next, compounds were added and the relative wound density was measured every minute and visualized in time-course plots (left panels). PI is added to all wells to visualize toxicity over time, i.e. only dead cells take up this cell-impermeable dye (right panels). Average ± SEM (n = 3) are shown.
Wounds were created in confluent HMEC-1 cells by means of the “Incucyte® wound maker”. Next, different concentrations of compound and PI were added and images were taken every 2 min for the duration of the experiment. The algorithm masks each phase-contrast image to identify the position of the wounded (cell-free) and unwounded (cell-occupied) zones. Relative wound density is calculated and visualized in time-course plots.

| SMILES | IC50 [1] [µM] | IC50 [2] [µM] | disruption of the vascular (tubular) network ([3]; 0.01 μM) | disruption of the vascular (tubular) network ([3]; 0.1 μM) | IC50 [4] [µM] | cells in the sub-G1 phase (indicative of apoptosis) [5] | lowest concentration arresting the cell cycle in the M phase [5] [µM] | lowest concentration inhibiting wound closure [6] [µM] | uptake of PI (toxicity) [6] |
| --- | --- | --- | --- | --- | --- | --- | --- | --- | --- |
| COCc1cc2cccc(NC(C)=C3C(=O)CC(c4ccccc4)CC3=O)c2o1 (stereo not drawn) [Compound 27, 2-(1-((2-(Methoxymethyl)benzofuran-7-yl)amino)ethylidene)-5-phenylcyclohexane-1,3-dione] | 0.039 ± 0.015 | 0.023 ± 0.002 | antivascular effect was still evident | nearly completely abrogated the vascular network | 0.031 ± 0.002 | caused an increase of cells in the sub-G1 phase | 0.03 | 0.06 | No increased uptake of PI |
| CC(Nc1cccc2cc(COCCCO)oc12)=C1C(=O)CC(c2ccccc2)CC1=O (stereo not drawn) [Compound 28, 2-(1-((2-((3-Hydroxypropoxy)methyl)benzofuran-7-yl)amino)ethylidene)-5-phenylcyclohexane-1,3-dione] | 0.076 ± 0.015 | 0.038 ± 0.007 | antivascular effect was still evident | nearly completely abrogated the vascular network | 0.051 ± 0.018 | caused an increase of cells in the sub-G1 phase | 0.1 | 0.06 | No increased uptake of PI |
